Source: ChEMBL document CHEMBL1201862, “PubChem BioAssay data set” (2004)
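These data come from cells grown in 96-well plates and exposed to compound for 48 hours at five concentrations. At the GI50, growth is halved.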 Activity calls are given as the source filed them. Cut-off read from the data, not from the text of the source: active = GI50 up to about 1.1 µM and inactive = higher.

Assays:
Assay in all cases: NCI tumour cell line growth inhibition, 48 h
IGROV-1 = system: IGROV-1
SK-MEL-28 = system: SK-MEL-28
SK-MEL-2 = system: SK-MEL-2
CAKI-1 = system: CAKI-1
UACC-62 = system: UACC-62
HCC 2998 = system: HCC 2998
SF-539 = system: SF-539
TK-10 = system: TK-10
SW-620 = system: SW-620
K562 = system: K562
SF-295 = system: SF-295
SR = system: SR
MOLT-4 = system: MOLT-4
HL-60 = system: HL-60
HCT-116 = system: HCT-116
SK-MEL-5 = system: SK-MEL-5
UACC-257 = system: UACC-257

Structure (SMILES) | GI50 (IGROV-1) | GI50 (SK-MEL-28) | GI50 (SK-MEL-2) | GI50 (CAKI-1) | GI50 (UACC-62) | GI50 (HCC 2998) | GI50 (SF-539) | GI50 (TK-10) | GI50 (SW-620) | GI50 (K562) | GI50 (SF-295) | GI50 (SR) | GI50 (MOLT-4) | GI50 (HL-60) | GI50 (HCT-116) | GI50 (SK-MEL-5) | GI50 (UACC-257)
C/N=N/N(C)C(=O)NC | > 100 µM (inactive) | > 100 µM (inactive) | > 100 µM (inactive) | > 100 µM (inactive) | > 100 µM (inactive) | > 100 µM (inactive) | > 100 µM (inactive) | > 100 µM (inactive) | > 100 µM (inactive) | > 100 µM (inactive) | > 100 µM (inactive) | > 100 µM (inactive) | > 100 µM (inactive) | > 100 µM (inactive) | > 100 µM (inactive) | > 100 µM (inactive) | –
O=C1/C=C(/c2ccc(O)cc2)[C@@H](O)Cc2ccc(O)cc2O1 | > 100 µM (inactive) | – | > 100 µM (inactive) | 29.1 µM (inactive) | 31 µM (inactive) | – | 52.5 µM (inactive) | > 100 µM (inactive) | > 100 µM (inactive) | – | 93.1 µM (inactive) | 56.1 µM (inactive) | – | – | > 100 µM (inactive) | > 100 µM (inactive) | > 100 µM (inactive)
CCc1cccc(C)c1NC(=O)C(=O)Cc1nc2ccccc2s1 | 0.444 µM (active) | > 100 µM (inactive) | > 100 µM (inactive) | > 100 µM (inactive) | > 100 µM (inactive) | > 100 µM (inactive) | > 100 µM (inactive) | > 100 µM (inactive) | 0.371 µM (active) | > 100 µM (inactive) | > 100 µM (inactive) | > 100 µM (inactive) | > 100 µM (inactive) | > 100 µM (inactive) | > 100 µM (inactive) | > 100 µM (inactive) | > 100 µM (inactive)
C=Nc1ccc([N+](=O)[O-])cc1 | > 100 µM (inactive) | > 100 µM (inactive) | > 100 µM (inactive) | > 100 µM (inactive) | > 84.5 µM (inactive) | > 100 µM (inactive) | > 100 µM (inactive) | > 100 µM (inactive) | > 63.8 µM (inactive) | > 44.6 µM (inactive) | > 100 µM (inactive) | > 41.5 µM (inactive) | > 100 µM (inactive) | > 62.7 µM (inactive) | > 100 µM (inactive) | > 100 µM (inactive) | > 100 µM (inactive)
COC1=CC(=O)C2[C@H]3Cc4ccccc4[C@H]3C2(C)C1=O (some centres not stated) | > 100 µM (inactive) | > 100 µM (inactive) | > 100 µM (inactive) | > 100 µM (inactive) | > 100 µM (inactive) | > 100 µM (inactive) | > 100 µM (inactive) | > 100 µM (inactive) | > 100 µM (inactive) | 52.1 µM (inactive) | > 100 µM (inactive) | 70.3 µM (inactive) | 91.6 µM (inactive) | – | – | > 100 µM (inactive) | > 100 µM (inactive)
C#CC1(O)CCC2C3CCc4cc(Oc5nc(F)nc(-c6c7ccccc7c7sc8ccccc8n67)n5)ccc4C3CC[C@@]21C (some centres not stated) | > 100 µM (inactive) | > 100 µM (inactive) | > 100 µM (inactive) | > 100 µM (inactive) | > 100 µM (inactive) | > 100 µM (inactive) | > 100 µM (inactive) | > 100 µM (inactive) | > 100 µM (inactive) | > 100 µM (inactive) | > 100 µM (inactive) | 32.1 µM (inactive) | 42 µM (inactive) | > 100 µM (inactive) | > 100 µM (inactive) | > 100 µM (inactive) | > 100 µM (inactive)
CCCN(CCC)c1c([N+](=O)[O-])cc(C(=O)N(C)C)cc1[N+](=O)[O-] | 69.2 µM (inactive) | > 100 µM (inactive) | > 100 µM (inactive) | > 100 µM (inactive) | – | > 100 µM (inactive) | > 100 µM (inactive) | > 100 µM (inactive) | – | 19.2 µM (inactive) | > 100 µM (inactive) | – | 41 µM (inactive) | 15.6 µM (inactive) | 43.4 µM (inactive) | 5.07 µM (inactive) | 35.4 µM (inactive)
CC1=[N+]([O-])c2ccccc2C(=O)C1=O | > 100 µM (inactive) | > 100 µM (inactive) | > 100 µM (inactive) | > 100 µM (inactive) | 55.6 µM (inactive) | > 100 µM (inactive) | > 100 µM (inactive) | > 100 µM (inactive) | 89.5 µM (inactive) | 29.1 µM (inactive) | > 100 µM (inactive) | – | 43.2 µM (inactive) | 40.3 µM (inactive) | 48 µM (inactive) | > 100 µM (inactive) | 65.8 µM (inactive)
N/N=C1\C(=O)N(C2CCCCCC2)C(=O)C1C(=O)NC1CCCCCC1 (configuration not stated) | 38 µM (inactive) | > 10 µM (inactive) | 19.1 µM (inactive) | – | 18.8 µM (inactive) | 25.6 µM (inactive) | 24.7 µM (inactive) | > 10 µM (inactive) | 28.3 µM (inactive) | 30.3 µM (inactive) | 45.2 µM (inactive) | – | 22 µM (inactive) | 19.8 µM (inactive) | – | 17.1 µM (inactive) | 55.3 µM (inactive)
Cc1ccc(Sc2ccccc2N)cc1 | 37.7 µM (inactive) | 67 µM (inactive) | 35.7 µM (inactive) | 21.6 µM (inactive) | 53.2 µM (inactive) | 40.8 µM (inactive) | 29.5 µM (inactive) | 70.5 µM (inactive) | 49 µM (inactive) | 37.4 µM (inactive) | 78.2 µM (inactive) | – | 18.4 µM (inactive) | 18.9 µM (inactive) | 35.6 µM (inactive) | 20.7 µM (inactive) | 33.4 µM (inactive)
COC(=O)[C@@H]1c2[nH]c3ccccc3c2C[C@@H]2c3ccccc3NC(=O)[C@@H]21 | > 100 µM (inactive) | > 91 µM (inactive) | > 62.8 µM (inactive) | > 73.6 µM (inactive) | > 75.7 µM (inactive) | > 100 µM (inactive) | 43.7 µM (inactive) | > 80.4 µM (inactive) | > 70.3 µM (inactive) | > 100 µM (inactive) | 15.7 µM (inactive) | – | > 100 µM (inactive) | > 100 µM (inactive) | 37.3 µM (inactive) | > 54 µM (inactive) | > 85.1 µM (inactive)
NC(=O)COc1c(Br)cc(Br)cc1Br | – | > 100 µM (inactive) | > 100 µM (inactive) | > 100 µM (inactive) | > 100 µM (inactive) | > 100 µM (inactive) | > 100 µM (inactive) | – | – | > 100 µM (inactive) | > 100 µM (inactive) | > 100 µM (inactive) | > 100 µM (inactive) | – | > 100 µM (inactive) | > 100 µM (inactive) | > 100 µM (inactive)
CN(Cc1ccccc1)C(=O)c1ccccc1C(=O)O | > 100 µM (inactive) | – | > 100 µM (inactive) | > 100 µM (inactive) | – | > 100 µM (inactive) | > 100 µM (inactive) | > 100 µM (inactive) | > 100 µM (inactive) | > 100 µM (inactive) | > 100 µM (inactive) | > 100 µM (inactive) | > 100 µM (inactive) | > 100 µM (inactive) | > 100 µM (inactive) | – | > 100 µM (inactive)
C/C(CN1C(=O)c2ccccc2C1=O)=N\NS(=O)(=O)c1ccc(C)cc1 | > 100 µM (inactive) | – | > 100 µM (inactive) | > 100 µM (inactive) | > 100 µM (inactive) | > 100 µM (inactive) | > 100 µM (inactive) | > 100 µM (inactive) | > 100 µM (inactive) | > 100 µM (inactive) | > 100 µM (inactive) | > 100 µM (inactive) | > 100 µM (inactive) | > 100 µM (inactive) | > 100 µM (inactive) | > 100 µM (inactive) | > 100 µM (inactive)
CN(C)C(=S)/N=c1\ssc(=S)n1Cc1ccccn1 | 7.29 µM (inactive) | 4.65 µM (inactive) | 1.94 µM (inactive) | 6.93 µM (inactive) | 2.41 µM (inactive) | 4.92 µM (inactive) | 4.49 µM (inactive) | 7.55 µM (inactive) | 2.7 µM (inactive) | 0.748 µM (active) | 3.8 µM (inactive) | – | 3.11 µM (inactive) | 3.19 µM (inactive) | 2.87 µM (inactive) | 3.52 µM (inactive) | 4.1 µM (inactive)
CCOC(=O)C(C)(c1cn(C)c2ccccc12)c1cn(C)c2ccccc12 | > 100 µM (inactive) | > 100 µM (inactive) | > 100 µM (inactive) | 41.6 µM (inactive) | 87.9 µM (inactive) | > 100 µM (inactive) | 49.7 µM (inactive) | 83.9 µM (inactive) | > 100 µM (inactive) | 66.2 µM (inactive) | 24.5 µM (inactive) | – | > 100 µM (inactive) | > 100 µM (inactive) | 34.3 µM (inactive) | > 100 µM (inactive) | > 100 µM (inactive)
O=C1CN(C(=O)c2ccccc2)Cc2[nH]c3ccccc3c21 | > 100 µM (inactive) | > 100 µM (inactive) | > 100 µM (inactive) | – | > 100 µM (inactive) | > 100 µM (inactive) | > 100 µM (inactive) | > 100 µM (inactive) | > 100 µM (inactive) | > 100 µM (inactive) | > 100 µM (inactive) | > 100 µM (inactive) | > 100 µM (inactive) | > 100 µM (inactive) | > 100 µM (inactive) | > 100 µM (inactive) | > 100 µM (inactive)
COc1cc(C(=O)N[C@H]2CCc3cc(OC)c(OC)c(OC)c3-c3ccc(SC)c(=O)cc32)cc(OC)c1OC | 0.0166 µM (active) | 12.3 µM (inactive) | 0.0102 µM (active) | – | 0.0316 µM (active) | 0.0113 µM (active) | 0.00515 µM (active) | 0.215 µM (active) | 0.00741 µM (active) | 0.00583 µM (active) | 0.00962 µM (active) | 0.0126 µM (active) | 0.00916 µM (active) | 0.00847 µM (active) | 0.00857 µM (active) | 0.0132 µM (active) | 0.0586 µM (active)
